Assay results taken from ChEMBL document CHEMBL2203055, “From α4β2 Nicotinic Ligands to the Discovery of σ1 Receptor Ligands: Pharmacophore Analysis and Rational Design” (ACS Med Chem Lett, 2012).

Columns and labels:
[1] = Displacement of [3H]DTG from sigma 2 receptor in rat PC12 cell membrane after 2 hrs by microbeta scintillation counting analysis; assay type: cell membranes; conditions: pc-12
[2] = target: D(1A) dopamine receptor (Homo sapiens) (UniProt P21728); assay: Displacement of [3H]SCH23390 from human recombinant D1 receptor at 10 uM after 1.5 hrs by microbeta scintillation counting analysis
[3] = target: T1, Sodium-dependent noradrenaline transporter (Homo sapiens, UniProt P23975); assay: Displacement of [3H]nisoxetine from human recombinant NET after 1.5 hrs by microbeta scintillation counting analysis
[4] = target: 5-hydroxytryptamine receptor 2A (Homo sapiens, UniProt P28223); assay: Displacement of [3H]ketanserin from human recombinant 5-HT2A receptor at 10 uM after 1.5 hrs by microbeta scintillation counting analysis
[5] = target: T2, Beta-2 adrenergic receptor (Homo sapiens, UniProt P07550); assay: Displacement of [125I]Iodopindolol from beta 2 adrenergic receptor at 10 uM after 1.5 hrs by microbeta scintillation counting analysis
Target sequence in this assay (P07550 whole entry, looked up): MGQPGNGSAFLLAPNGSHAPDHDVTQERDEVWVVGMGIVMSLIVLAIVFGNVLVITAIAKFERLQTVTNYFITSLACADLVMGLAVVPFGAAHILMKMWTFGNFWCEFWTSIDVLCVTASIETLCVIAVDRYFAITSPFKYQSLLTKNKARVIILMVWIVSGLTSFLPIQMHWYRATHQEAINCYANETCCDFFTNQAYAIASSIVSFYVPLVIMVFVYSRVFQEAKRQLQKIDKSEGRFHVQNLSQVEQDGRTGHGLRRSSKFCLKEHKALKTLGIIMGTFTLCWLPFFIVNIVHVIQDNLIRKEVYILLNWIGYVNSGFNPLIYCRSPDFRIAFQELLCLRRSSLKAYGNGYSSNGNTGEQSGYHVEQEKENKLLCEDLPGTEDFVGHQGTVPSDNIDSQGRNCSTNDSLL

Rattus norvegicus = species on record: Rattus norvegicus; assay: Displacement of [3H]muscimol from GABAA receptor in rat brain membrane at 10 uM after 1.5 hrs by microbeta scintillation counting analysis; assay type: cell membranes
[6] = target: Muscarinic acetylcholine receptor M4 (Homo sapiens) (UniProt P08173); assay: Displacement of [3H]QNB from human recombinant muscarinic M4 receptor at 10 uM after 1.5 hrs by microbeta scintillation counting analysis
[7] = target: Delta-type opioid receptor (Homo sapiens) (UniProt P41143); assay: Displacement of [3H]DADLE from human recombinant delta-opioid receptor at 10 uM after 1.5 hrs by microbeta scintillation counting analysis
[8] = target: 5-hydroxytryptamine receptor 6 (Homo sapiens, UniProt P50406); assay: Displacement of [3H]LSD from human recombinant 5-HT6 receptor after 1.5 hrs by microbeta scintillation counting analysis
[9] = target: 5-hydroxytryptamine receptor 2C (Homo sapiens) (UniProt P28335); assay: Displacement of [3H]mesulergine from human recombinant 5-HT2C receptor at 10 uM after 1.5 hrs by microbeta scintillation counting analysis
[10] = target: 5-hydroxytryptamine receptor 1B (Homo sapiens) (UniProt P28222); assay: Displacement of [3H]GR125743 from human recombinant 5-HT1B receptor at 10 uM after 1.5 hrs by microbeta scintillation counting analysis
[11] = target: T1, Sodium-dependent noradrenaline transporter; assay: Displacement of [3H]nisoxetine from human recombinant NET at 10 uM after 1.5 hrs by microbeta scintillation counting analysis
[12] = target: Beta-3 adrenergic receptor (Homo sapiens) (UniProt P13945); assay: Displacement of [125I]Iodopindolol from beta 3 adrenergic receptor at 10 uM after 1.5 hrs by microbeta scintillation counting analysis
[13] = target: Muscarinic acetylcholine receptor M5 (Homo sapiens) (UniProt P08912); assay: Displacement of [3H]QNB from human recombinant muscarinic M5 receptor at 10 uM after 1.5 hrs by microbeta scintillation counting analysis
[14] = target: 5-hydroxytryptamine receptor 1E (Homo sapiens) (UniProt P28566); assay: Displacement of [3H]5-HT from human recombinant 5-HT1E receptor at 10 uM after 1.5 hrs by microbeta scintillation counting analysis
Histamine H1 receptor = Histamine H1 receptor (Homo sapiens, UniProt P35367); assay: Displacement of [3H]pyrilamine from human recombinant histamine H1 receptor after 1.5 hrs by microbeta scintillation counting analysis
[15] = target: Neuronal acetylcholine receptor; alpha2/beta4 (Homo sapiens) (UniProt P30926+Q15822); assay: Displacement of [3H]epibatidine from alpha2beta4 nAChR at 10 uM after 4 hrs by liquid scintillation counting analysis; assay type: protein-complex assay
[16] = target: T2, Beta-2 adrenergic receptor; assay: Displacement of [125I]Iodopindolol from beta 2 adrenergic receptor after 1.5 hrs by microbeta scintillation counting analysis
[17] = target: Neuronal acetylcholine receptor; alpha4/beta2 (Rattus norvegicus) (UniProt P09483+P12390); assay: Displacement of [3H]epibatidine from alpha4beta2* nAChR in rat forebrain at 10 uM after 4 hrs by liquid scintillation counting analysis
[18] = target: Neuronal acetylcholine receptor; alpha4/beta2 (Homo sapiens) (UniProt P17787+P43681); assay: Displacement of [3H]epibatidine from alpha4beta2 nAChR at 10 uM after 4 hrs by liquid scintillation counting analysis; assay type: protein-complex assay
[19] = target: Neuronal acetylcholine receptor; alpha4/beta4 (Homo sapiens) (UniProt P30926+P43681); assay: Displacement of [3H]epibatidine from alpha4beta4 nAChR at 10 uM after 4 hrs by liquid scintillation counting analysis; assay type: protein-complex assay
[20] = Selectivity ratio of Ki for human recombinant DAT to Ki for sigma 1 receptor in rat brain membrane; assay type: cell membranes
[21] = target: Neuronal acetylcholine receptor; alpha2/beta2 (Homo sapiens) (UniProt P17787+Q15822); assay: Displacement of [3H]epibatidine from alpha2beta2 nAChR at 10 uM after 4 hrs by liquid scintillation counting analysis; assay type: protein-complex assay
Histamine H2 receptor = Histamine H2 receptor (Homo sapiens, UniProt P25021); assay: Displacement of [3H]tiotidine from human recombinant histamine H2 receptor after 1.5 hrs by microbeta scintillation counting analysis
[22] = target: 5-hydroxytryptamine receptor 2B (Homo sapiens, UniProt P41595); assay: Displacement of [3H]LSD from human recombinant 5-HT2B receptor after 1.5 hrs by microbeta scintillation counting analysis
[23] = target: Neuronal acetylcholine receptor; alpha3/beta2 (Homo sapiens) (UniProt P17787+P32297); assay: Displacement of [3H]epibatidine from alpha3beta2 nAChR at 10 uM after 4 hrs by liquid scintillation counting analysis; assay type: protein-complex assay
[24] = Selectivity ratio of Ki for human recombinant NET to Ki for sigma 1 receptor in rat brain membrane; assay type: cell membranes
[25] = target: Neuronal acetylcholine receptor; alpha3/beta4 (Homo sapiens) (UniProt P30926+P32297); assay: Displacement of [3H]epibatidine from alpha3beta4 nAChR at 10 uM after 4 hrs by liquid scintillation counting analysis; assay type: protein-complex assay

T1 sequence (P23975 whole entry): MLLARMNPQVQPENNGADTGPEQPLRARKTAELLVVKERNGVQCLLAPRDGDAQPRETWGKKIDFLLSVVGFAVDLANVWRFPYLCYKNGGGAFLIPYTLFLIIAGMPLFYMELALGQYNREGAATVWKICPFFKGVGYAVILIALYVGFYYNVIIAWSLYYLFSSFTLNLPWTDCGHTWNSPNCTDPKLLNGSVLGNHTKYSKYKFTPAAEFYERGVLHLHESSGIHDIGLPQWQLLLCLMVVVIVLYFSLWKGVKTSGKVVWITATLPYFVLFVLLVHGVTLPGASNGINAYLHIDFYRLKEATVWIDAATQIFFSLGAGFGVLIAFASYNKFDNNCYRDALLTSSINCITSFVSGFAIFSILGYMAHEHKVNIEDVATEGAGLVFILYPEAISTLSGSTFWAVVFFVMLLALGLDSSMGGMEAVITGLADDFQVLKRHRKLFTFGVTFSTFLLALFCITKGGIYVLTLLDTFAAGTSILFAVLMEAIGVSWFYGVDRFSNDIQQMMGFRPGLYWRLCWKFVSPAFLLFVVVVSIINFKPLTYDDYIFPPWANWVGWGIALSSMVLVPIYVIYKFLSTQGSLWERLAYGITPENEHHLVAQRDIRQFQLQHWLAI
5-hydroxytryptamine receptor 1B (Homo sapiens), sequence (P28222 whole entry): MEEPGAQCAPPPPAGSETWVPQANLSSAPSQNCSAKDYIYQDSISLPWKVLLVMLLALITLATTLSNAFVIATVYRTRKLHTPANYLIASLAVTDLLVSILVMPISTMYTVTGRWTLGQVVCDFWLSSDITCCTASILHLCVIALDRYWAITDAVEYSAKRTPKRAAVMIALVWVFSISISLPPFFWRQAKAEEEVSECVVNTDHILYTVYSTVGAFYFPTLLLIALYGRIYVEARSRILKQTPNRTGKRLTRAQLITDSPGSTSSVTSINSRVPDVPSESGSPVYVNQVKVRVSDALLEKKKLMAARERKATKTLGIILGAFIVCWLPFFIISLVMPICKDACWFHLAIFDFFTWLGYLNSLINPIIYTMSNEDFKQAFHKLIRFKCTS
Muscarinic acetylcholine receptor M4 (Homo sapiens), sequence (P08173 whole entry): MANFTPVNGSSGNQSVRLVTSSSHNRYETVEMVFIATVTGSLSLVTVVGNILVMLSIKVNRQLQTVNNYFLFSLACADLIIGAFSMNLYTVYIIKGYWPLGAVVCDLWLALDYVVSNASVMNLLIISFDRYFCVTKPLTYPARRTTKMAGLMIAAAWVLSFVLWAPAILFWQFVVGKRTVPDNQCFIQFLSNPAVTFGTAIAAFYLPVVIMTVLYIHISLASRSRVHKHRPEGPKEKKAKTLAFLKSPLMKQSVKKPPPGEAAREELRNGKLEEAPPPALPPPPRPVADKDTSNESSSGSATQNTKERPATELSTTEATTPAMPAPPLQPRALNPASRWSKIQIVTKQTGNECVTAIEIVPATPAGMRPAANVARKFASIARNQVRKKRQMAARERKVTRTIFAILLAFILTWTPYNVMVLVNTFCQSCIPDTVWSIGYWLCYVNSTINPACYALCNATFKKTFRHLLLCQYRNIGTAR
5-hydroxytryptamine receptor 2C (Homo sapiens), sequence (P28335 whole entry): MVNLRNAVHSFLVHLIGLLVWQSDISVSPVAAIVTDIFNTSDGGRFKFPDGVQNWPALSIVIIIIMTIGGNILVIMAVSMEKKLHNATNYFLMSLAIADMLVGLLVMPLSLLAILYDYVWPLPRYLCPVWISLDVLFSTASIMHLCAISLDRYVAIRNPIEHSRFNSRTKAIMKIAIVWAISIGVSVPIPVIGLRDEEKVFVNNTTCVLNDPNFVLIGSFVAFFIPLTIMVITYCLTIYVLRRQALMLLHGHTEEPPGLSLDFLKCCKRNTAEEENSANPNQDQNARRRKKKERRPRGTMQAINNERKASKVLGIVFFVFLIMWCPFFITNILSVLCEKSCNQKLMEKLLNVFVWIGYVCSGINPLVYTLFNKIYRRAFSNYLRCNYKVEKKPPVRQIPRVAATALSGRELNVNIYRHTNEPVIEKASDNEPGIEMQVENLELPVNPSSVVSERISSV
Delta-type opioid receptor (Homo sapiens), sequence (P41143 whole entry): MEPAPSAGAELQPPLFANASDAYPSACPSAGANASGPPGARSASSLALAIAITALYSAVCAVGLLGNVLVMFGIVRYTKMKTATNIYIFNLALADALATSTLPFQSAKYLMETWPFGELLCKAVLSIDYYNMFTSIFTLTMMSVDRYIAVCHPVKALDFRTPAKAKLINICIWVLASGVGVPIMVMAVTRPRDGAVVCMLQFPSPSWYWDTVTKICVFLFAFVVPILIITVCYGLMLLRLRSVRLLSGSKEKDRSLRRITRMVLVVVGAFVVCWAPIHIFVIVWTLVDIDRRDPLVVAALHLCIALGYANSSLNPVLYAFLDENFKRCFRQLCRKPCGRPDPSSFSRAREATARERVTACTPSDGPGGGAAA
Beta-3 adrenergic receptor (Homo sapiens), sequence (P13945 whole entry, looked up): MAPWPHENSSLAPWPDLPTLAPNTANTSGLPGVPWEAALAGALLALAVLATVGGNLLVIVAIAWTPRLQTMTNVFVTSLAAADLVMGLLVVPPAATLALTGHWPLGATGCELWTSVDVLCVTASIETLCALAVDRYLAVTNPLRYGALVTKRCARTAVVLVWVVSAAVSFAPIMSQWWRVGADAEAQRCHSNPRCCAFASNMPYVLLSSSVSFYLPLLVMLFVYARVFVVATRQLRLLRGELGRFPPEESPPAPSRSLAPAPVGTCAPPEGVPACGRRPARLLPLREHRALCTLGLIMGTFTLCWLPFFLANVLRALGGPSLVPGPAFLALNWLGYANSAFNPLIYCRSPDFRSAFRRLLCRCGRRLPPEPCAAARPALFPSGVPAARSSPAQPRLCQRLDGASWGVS
D(1A) dopamine receptor (Homo sapiens), sequence (P21728 whole entry): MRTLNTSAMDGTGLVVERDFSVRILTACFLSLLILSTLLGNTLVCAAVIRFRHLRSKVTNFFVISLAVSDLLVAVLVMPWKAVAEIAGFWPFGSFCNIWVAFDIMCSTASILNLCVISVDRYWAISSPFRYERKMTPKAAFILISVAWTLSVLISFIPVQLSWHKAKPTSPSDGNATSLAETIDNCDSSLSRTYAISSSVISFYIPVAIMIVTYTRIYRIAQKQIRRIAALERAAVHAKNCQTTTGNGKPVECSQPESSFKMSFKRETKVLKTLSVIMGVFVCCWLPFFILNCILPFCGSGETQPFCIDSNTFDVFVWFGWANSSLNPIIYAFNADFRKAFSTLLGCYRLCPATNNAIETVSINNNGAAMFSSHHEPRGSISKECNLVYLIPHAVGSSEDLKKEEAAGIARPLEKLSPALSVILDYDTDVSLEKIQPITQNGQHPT
5-hydroxytryptamine receptor 2A, sequence (P28223 whole entry): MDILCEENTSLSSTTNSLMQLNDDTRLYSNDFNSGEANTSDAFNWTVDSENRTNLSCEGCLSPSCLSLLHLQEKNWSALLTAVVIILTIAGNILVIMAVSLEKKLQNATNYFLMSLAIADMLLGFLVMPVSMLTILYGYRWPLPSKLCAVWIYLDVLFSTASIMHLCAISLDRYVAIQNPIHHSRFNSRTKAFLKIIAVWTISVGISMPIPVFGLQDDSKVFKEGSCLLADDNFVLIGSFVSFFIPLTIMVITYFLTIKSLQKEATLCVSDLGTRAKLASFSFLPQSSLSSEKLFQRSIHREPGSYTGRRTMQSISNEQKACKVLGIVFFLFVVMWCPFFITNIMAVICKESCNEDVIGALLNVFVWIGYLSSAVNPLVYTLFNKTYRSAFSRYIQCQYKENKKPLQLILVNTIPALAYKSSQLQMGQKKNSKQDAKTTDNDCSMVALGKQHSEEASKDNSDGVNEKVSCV
Muscarinic acetylcholine receptor M5 (Homo sapiens), sequence (P08912 whole entry): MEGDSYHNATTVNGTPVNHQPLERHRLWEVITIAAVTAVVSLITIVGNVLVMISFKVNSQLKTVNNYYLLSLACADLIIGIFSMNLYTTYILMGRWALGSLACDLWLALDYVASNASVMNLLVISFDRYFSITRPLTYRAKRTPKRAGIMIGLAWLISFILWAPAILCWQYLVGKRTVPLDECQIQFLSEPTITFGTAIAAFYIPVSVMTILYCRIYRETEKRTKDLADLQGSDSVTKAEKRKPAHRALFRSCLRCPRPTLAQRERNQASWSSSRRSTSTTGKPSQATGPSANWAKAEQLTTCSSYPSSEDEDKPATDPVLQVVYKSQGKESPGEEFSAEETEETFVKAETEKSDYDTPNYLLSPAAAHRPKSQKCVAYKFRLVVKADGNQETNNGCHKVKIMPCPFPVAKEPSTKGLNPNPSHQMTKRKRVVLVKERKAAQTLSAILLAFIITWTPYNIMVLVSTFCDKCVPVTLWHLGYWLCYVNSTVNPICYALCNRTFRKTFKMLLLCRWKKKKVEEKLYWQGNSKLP
5-hydroxytryptamine receptor 1E (Homo sapiens), sequence (P28566 whole entry): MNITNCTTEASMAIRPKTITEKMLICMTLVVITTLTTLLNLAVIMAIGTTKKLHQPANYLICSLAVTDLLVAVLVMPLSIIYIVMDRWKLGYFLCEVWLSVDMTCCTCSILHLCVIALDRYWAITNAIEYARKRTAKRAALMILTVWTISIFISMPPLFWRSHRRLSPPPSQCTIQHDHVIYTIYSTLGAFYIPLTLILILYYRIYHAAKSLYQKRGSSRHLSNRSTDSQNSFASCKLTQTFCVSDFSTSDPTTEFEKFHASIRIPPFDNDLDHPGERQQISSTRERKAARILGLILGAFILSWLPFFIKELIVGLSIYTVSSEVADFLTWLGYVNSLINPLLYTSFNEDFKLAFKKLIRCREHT

For `c1ccc(OCc2cc(OC[C@@H]3CCN3)no2)cc1`, the Ki [1] was 1.47 µM, the Efficacy [2] was 6.1% and the Ki [3] was 0.191 µM. It also gave an Efficacy [4] of 77.9%, an Efficacy [5] of 29.4% and an Efficacy (Rattus norvegicus) of 2.5%. For the same compound, the Efficacy [6] was 35.1%, the Efficacy [7] was 4.9% and the Ki [8] was greater than 10 µM. For the same compound, the Efficacy [9] was 68.8%, the Efficacy [10] was 2.3% and the Efficacy [11] was 97.2%. The Efficacy [12] was -1.5%, the Efficacy [13] was 44.5% and the Efficacy [14] was 5.9%.

Compound `c1ccc(OCc2cc(OC[C@@H]3CCCN3)no2)cc1` has a Ki (Histamine H1 receptor) greater than 10 µM, a Ki [1] of 1.31 µM and an Efficacy [2] of -5.7%. For the same compound, the Activity [15] was less than 50%, the Ki [3] was 0.203 µM and the Ki [16] was greater than 10 µM. It also gave an Efficacy [4] of 68%, an Efficacy [5] of 55.6% and an Efficacy (Rattus norvegicus) of 5.7%. For the same compound, the Activity [17] was less than 50%, the Activity [18] was less than 50% and the Activity [19] was less than 50%. The Efficacy [6] was 33.6%, the Ratio Ki [20] was 90 and the Efficacy [7] was 10.3%. For the same compound, the Activity [21] was less than 50%, the Ki (Histamine H2 receptor) was 5.16 µM and the Ki [22] was 5.1 µM. It also gave an Efficacy [9] of 76.9%, an Activity [23] of less than 50% and an Efficacy [10] of -1.2%. It also gave an Efficacy [11] of 95.9%, a Ratio Ki [24] of 50 and an Activity [25] of less than 50%. The Efficacy [12] was 7.2%, the Efficacy [13] was 36.6% and the Efficacy [14] was -4.7%.
